Like-named read-outs stand apart in the source and are kept apart here.
Tests used:
[1] = system: aromatase activity in skin fibroblasts; assay: Stimulation of fibroblast aromatase by pre-incubating cultured skin fibroblasts with hormones (tritiated water release assay); type: cell-based, human; settings: for fold induction at 0.01 µM: Homo sapiens, Skin fibroblast
Procedure: (§1) In a preliminary study to investigate the above hypothesis we have measured aromatase activity in cultured human hair follicle dermal papilla cell lines and non-follicular skin fibroblasts from body sites with different responses to androgens. Aromatase was measured using the tritiated water released assay (13). The results are summarised as follows:
Fibroblast aromatase was stimulated by pre-incubating cells with testosterone at physiological concentrations (10 nmol). 19 cell lines were studied. Mean fold increase in aromatase activity (+/- SEM) was 2.69+/-0.38 (p<0.02 paired test). In separate experiments on three cell lines the response to a range of concentrations of testosterone and DHT was studied. Testosterone gave a twofold increase in aromatase maximal at 10 nmol. At the same concentration in response to DHT was over twice as great (4.3 fold).
Fibroblast aromatase was stimulated by pre-incubating the cells with testosterone at a physiological concentration (10 nmol). 19 cell lines were studied. Mean fold increase in aromatase activity (+/- SEM) was 2.69+/-0.38 (p<0.02 paired t test). In separate experiments on three cell lines the response to a range of concentrations of testosterone and DHT was studied. Testosterone gave a 2 fold increase in aromatase maximal at 10 nmol. At the same concentration the response to DHT was over twice as great (4.3 fold).

[2] = system: aromatase activity in hair follicle dermal papilla cells; assay: Induction of aromatase in cultured hair follicle dermal papilla cells (tritiated water release assay); type: cell-based, human
Procedure: as §1
No aromatase was detected in hair follicle dermal papilla cells cultured through any of the above sites (fourteen cell lines).
No aromatase was detected in hair follicle dermal papilla cells cultured from any of the above sites (14 cell lines).

female hair loss = settings: several small trials, taken orally; cited from earlier work
aromatase [3] = molecular target: T1, aromatase (Homo sapiens, UniProt P11511); assay: Aromatase by tritiated water assay in minced scalp skin samples, with and without aromatase inhibitor; type: biochemical; design: endogenous in cells; host or cells: cultured human non-follicular skin fibroblast lines (beard, occipital scalp, frontal scalp); settings: addition of 25 nmol to minced scalp skin samples
T1 sequence (P11511 1-503): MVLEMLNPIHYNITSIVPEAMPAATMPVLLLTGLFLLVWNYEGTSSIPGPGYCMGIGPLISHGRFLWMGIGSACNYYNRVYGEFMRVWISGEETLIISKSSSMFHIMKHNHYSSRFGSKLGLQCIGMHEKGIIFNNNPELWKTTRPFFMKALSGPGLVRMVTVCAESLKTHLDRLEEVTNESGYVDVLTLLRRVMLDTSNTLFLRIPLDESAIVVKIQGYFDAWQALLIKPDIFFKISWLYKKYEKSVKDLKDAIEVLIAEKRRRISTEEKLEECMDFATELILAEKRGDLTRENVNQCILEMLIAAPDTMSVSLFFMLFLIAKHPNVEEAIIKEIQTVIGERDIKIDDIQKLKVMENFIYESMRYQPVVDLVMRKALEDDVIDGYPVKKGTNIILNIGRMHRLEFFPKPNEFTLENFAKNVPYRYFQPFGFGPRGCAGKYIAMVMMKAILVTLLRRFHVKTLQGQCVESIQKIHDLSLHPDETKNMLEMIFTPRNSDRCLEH
Procedure: To determine whether the results obtained using cell culture are representative of events occurring in vivo aromatase was measured by the tritiated water assay in skin samples from male and female scalp. Tissue was minced and then incubated with 1β^3 H-androstenedione together with a source of NADPH. Each assay was done in the presence and absence of an aromatase inhibitor (4OH-androstenedione). Placental tissue was used as a positive control.

aromatase [4] = molecular target: T1, aromatase; assay: Aromatase activity by tritiated water release assay in cultured skin fibroblasts: substrate kinetics and inhibition
Procedure: (§2) Enzymic kinetic values were established by incubating cells with the substrate (androstenedione) in a range of concentrations.
(§3) Enzyme kinetic values were established by incubating cells with the substrate (androstenedione) in a range of concentrations.

balding = settings: topical application, humans; cited from earlier work
[5] = substrate: C[C@]12CCC(=O)C=C1CC[C@@H]1[C@@H]2CC[C@]2(C)C(=O)CC[C@@H]12; assay: cells, lysate or membranes; settings: other: skin fibroblast lines from beard, occipital scalp and frontal scalp; no difference between the three sites
Procedure: as §2, §3

[6] = read-out: Fold increase in aromatase

With `C[C@@H]1C[C@H]2[C@@H]3CCC4=CC(=O)C=C[C@]4(C)[C@@]3(F)[C@@H](O)C[C@]2(C)[C@@]1(O)C(=O)CO` [Dexamethasone] the “Stimulation of aromatase in fibroblasts” value ([1]; skin fibroblasts) was 10-20 fold and the “Induction of aromatase in dermal papilla cells” value [2] was “induced aromatase”.

For `C[C@]12CC[C@H]3[C@@H](CCC4=CC(=O)CC[C@@]43C)[C@@H]1CC[C@@H]2O` [testosterone], the fold induction at 0.01 µM [1, 6] was 2, the fold induction at 0.01 µM ([1]; read-out: Mean fold increase in aromatase activity (+/- SEM)) was 2.69 ± 0.38 and the “Mean fold increase in aromatase activity (+/- SEM)” value ([1]; pre-incubation with 10 nmol, 19 fibroblast cell lines, p<0.02) was 2.69+/-0.38 fold. The “Fold increase in aromatase” value ([1]; separate experiments on three cell lines, range of concentrations, at 10 nmol (maximal for testosterone)) was “twofold” and the “Induction of aromatase in dermal papilla cells” value [2] was “failed to induce aromatase”.

For `CC(=O)O[C@]1(C(C)=O)CC[C@H]2[C@@H]3C=C(Cl)C4=CC(=O)[C@@H]5C[C@@H]5[C@]4(C)[C@H]3CC[C@@]21C` [cyproterone acetate], the “Effect on the aromatase response to testosterone and DHT” value ([1]; skin fibroblasts, androgen receptor blockade) is listed as “inhibited” and the “Effect in female hair loss” value (female hair loss) is listed as “small positive affect”.

In the case of `C[C@]12CCC(=O)C(O)=C1CC[C@@H]1[C@@H]2CC[C@]2(C)C(=O)CC[C@@H]12` [4-OH androstenedione], the “Effect on aromatase activity in scalp tissue” value (aromatase [3]) is reported as “reduced activity to background levels”, the IC50 (aromatase [4]) is reported as about 25 nM and the “Type of inhibition of fibroblast aromatase (kinetic studies)” value (aromatase [4]; three cell lines) is reported as “irreversible competitive inhibition”.

In the case of `Nc1cc(N2CCCCC2)nc(N)[n+]1[O-]` [Minoxidil], the “Subjects with modest recovery in early balding” value (balding) is listed as “about 30 % of subjects”.

For `C[C@]12CCC(=O)C[C@@H]1CC[C@@H]1[C@@H]2CC[C@]2(C)[C@@H](O)CC[C@@H]12` [DHT, dihydrotestosterone], the fold induction at 0.01 µM [1, 6] was 4.3.

B1: aromatase (Homo sapiens) (protein)
chain: T1 sequence (P11511 1-503)
In the case of B1, the Km [5] is reported as 25 nmol.

From patent US6020327A, “Control of hair growth” (The Central Sheffield University Hospitals NHS Trust, priority 1994, dated 2000)
